# According to patent US6407079B1, “Pharmaceutical compositions containing drugs which are instable or sparingly soluble in water and methods for their preparation” (Janssen Pharmaceutica N.V., priority 1985, dated 2002):
# Where two headings read alike, the source gives them in different places.
# What was measured:
# [1] = 24 h
# physchem = settings: for solubility at 24 h: 25 °C, thermodynamic from solid; for Ratio S1:S2: 24 h, pH 6.6
# [2] = Solubility of drugs in 4% aqueous hydroxypropyl-methyl-β-cyclodextrin solution (Example 2B); settings: in water, 4% hydroxypropyl-methyl-β-cyclodextrin (DS 0.96; MS 0.43)
# [3] = Storage stability of indometacin solutions, HPLC (Example 3); format: physicochemical; settings: for Indometacin content: 21° C.
# Method: In 10 ml phosphate buffer solution 0.7 g hydroxyethyl-β-cyclodextrin (MS 0.43) were dissolved together with 0.04 g indometacin at 25° C. until a clear solution was formed. […] (B). In a parallel test a saturated indometacin solution in a phosphate buffer solution (0.21 mg/ml) was stored under the same conditions (A). The great improved stability of the composition according to the invention is apparent.
# [4] = German Offenlegungsschrift 31 18 218; cited from earlier work
# [5] = Dissolution rate of medroxyprogesterone acetate from tablet (Example 5); format: physicochemical; settings: tablet with hydroxyethyl-β-cyclodextrin (MS 0.43), 5 mg drug per unit dose
# Method: In 100 ml water 7 g hydroxyethyl-β-cyclodextrin (MS 0.43) and 0.5 g medroxyprogesterone acetate were dissolved. The water was then evaporated in a rotation evaporator The residue (75 mg) was powdered and after addition of 366 mg calcium hydrogen phosphate.2H2O, 60 mg corn starch, 120 mg cellulose powder (microcrystalline), 4.2 mg highly dispersed silica (AEROSIL® 200) and 4.8 mg magnesium stearate tablets with a weight of 630.0 mg and comprising 5 mg drug per unit dose were made. The dissolution rate of the medroxyprogesterone acetate from this formulation is 21 times higher when compared to a tablet comprising the same inert ingredients without addition of the β-cyclodextrin ether.
# rats = format: in vivo
# Method: The acute intravenous toxicity of some β-cyclodextrins was tested on rats with the following results.
# [6] = cited from earlier work
# human red blood cells = assay: Haemolytic effect on human red blood cells; format: cell-based; settings: 30 minutes at 37° C., optical density at 540 nm
# Method: The haemolytic effect of the methylether according to German Offenlegungsschrift 31 18 218 was compared to that of an ether used according to the invention. To this end 100 μl of a physiological sodium chloride solution with a cyclodextrin content of 10%, 800 μl of a buffer (400 mg MOPS, 36 mg Na2HPO4.2H2O, 1,6 g NaCl in 200 ml H2O) and 100 μl of a suspension of human red blood cells (three times washed with sodium chloride solution) were mixed for 30 minutes at 37° C. Thereafter the mixture was centrifuged and the optical density was determined at 540 nm.
# a) 100 μl sodium chloride solution+buffer+0% haemolysis
# b) 900 μl water→100% haemolysis
# [7] = pH 6.6, aqueous with cosolvent or surfactant or cyclodextrin
compound,measurement,setting,value
COc1cc(N)c(Cl)cc1C(=O)NC1CCN(CCCOc2ccc(F)cc2)CC1OC (stereo not shown) [Cisapride],"R, ratio of saturation solubility with and without β-cyclodextrin derivative",[1],3
C[C@@H]1C[C@H]2[C@@H]3CCC4=CC(=O)C=C[C@]4(C)[C@@]3(F)[C@@H](O)C[C@]2(C)[C@@]1(O)C(=O)CO [Dexamethasone],solubility at 24 h,"physchem; pH 6.6, aqueous buffer",83 µg/mL
same,solubility at 24 h,physchem; [7],14300 µg/mL
CCOC(=O)c1cncn1[C@H](C)c1ccccc1 [Etomidate],"R, ratio of saturation solubility with and without β-cyclodextrin derivative",[2],8.5
COC(=O)Nc1nc2cc(C(=O)c3ccc(F)cc3)ccc2[nH]1 [Flubendazole],"R, ratio of saturation solubility with and without β-cyclodextrin derivative",[1],30
Fc1ccc(C(c2ccc(F)cc2)N2CCN(C/C=C/c3ccccc3)CC2)cc1 [Flunarizine],"R, ratio of saturation solubility with and without β-cyclodextrin derivative",[1],18
COc1ccc2c(c1)c(CC(=O)O)c(C)n2C(=O)c1ccc(Cl)cc1 [Indometacine],solubility at 24 h,"physchem; pH 6.6, aqueous buffer",190 µg/mL
same,solubility at 24 h,physchem; [7],5720 µg/mL
same,Ratio S1:S2,physchem,1:30.1
same,Indometacin content,"[3]; A: saturated solution in phosphate buffer, 0 weeks",100.1%
same,Indometacin content,"[3]; A: saturated solution in phosphate buffer, 2 weeks",91.2%
same,Indometacin content,"[3]; A: saturated solution in phosphate buffer, 4 weeks",79.1%
same,Indometacin content,"[3]; A: saturated solution in phosphate buffer, 6 weeks",69.8%
same,Indometacin content,"[3]; A: saturated solution in phosphate buffer, 8 weeks",64.8%
same,Indometacin content,"[3]; B: with hydroxyethyl-β-cyclodextrin (MS 0.43) in phosphate buffer, 0 weeks",99.7%
same,Indometacin content,"[3]; B: with hydroxyethyl-β-cyclodextrin (MS 0.43) in phosphate buffer, 2 weeks",99.9%
same,Indometacin content,"[3]; B: with hydroxyethyl-β-cyclodextrin (MS 0.43) in phosphate buffer, 4 weeks",98.1%
same,Indometacin content,"[3]; B: with hydroxyethyl-β-cyclodextrin (MS 0.43) in phosphate buffer, 6 weeks",98.6%
same,Indometacin content,"[3]; B: with hydroxyethyl-β-cyclodextrin (MS 0.43) in phosphate buffer, 8 weeks",98.4%
same,Concentration of saturated indometacin solution in phosphate buffer solution,"[3]; phosphate buffer solution, no cyclodextrin",210 µg/mL
same,"Increase of water solubility with the 2,6-di-O-methyl derivative of β-cyclodextrin",[4],20.4 fold
CCC(C)n1ncn(-c2ccc(N3CCN(c4ccc(OCC5COC(Cn6cncn6)(c6ccc(Cl)cc6Cl)O5)cc4)CC3)cc2)c1=O (stereo not shown) [Itraconazole],"R, ratio of saturation solubility with and without β-cyclodextrin derivative",[1]; pH 2.5,75
same,"R, ratio of saturation solubility with and without β-cyclodextrin derivative",[1]; pH 5,96
CC(=O)N1CCN(c2ccc(OCC3COC(Cn4ccnc4)(c4ccc(Cl)cc4Cl)O3)cc2)CC1 (stereo not shown) [Ketoconazole],"R, ratio of saturation solubility with and without β-cyclodextrin derivative",[1],85
C[C@@H]1CN([C@H]2CC[C@](C#N)(c3ccc(F)cc3)CC2)CC[C@]1(C(=O)O)c1ccccc1 [Levocabastine],"R, ratio of saturation solubility with and without β-cyclodextrin derivative",[1]; pH 7.4,8
same,"R, ratio of saturation solubility with and without β-cyclodextrin derivative",[1]; pH 9.5,81
CN(C)C(=O)C(CCN1CCC(O)(c2ccc(Cl)cc2)CC1)(c1ccccc1)c1ccccc1 [Loperamide],"R, ratio of saturation solubility with and without β-cyclodextrin derivative",[2],62
CC(=O)[C@H]1CC[C@H]2[C@@H]3CCC4=CC(=O)CC[C@]4(C)[C@H]3CC[C@]12C [Progesterone],solubility at 24 h,"physchem; pH 6.6, aqueous buffer",7.1 µg/mL
same,solubility at 24 h,physchem; [7],7690 µg/mL
same,Ratio S1:S2,physchem,1:1083.0
CCOC(=O)Nc1ccc(SC[C@@H]2CO[C@@](Cn3ccnc3)(c3ccc(Cl)cc3Cl)O2)cc1 [Tubulazole],"R, ratio of saturation solubility with and without β-cyclodextrin derivative",[2],43
CC(=O)O[C@]1(C(C)=O)CC[C@H]2[C@@H]3C[C@H](C)C4=CC(=O)CC[C@]4(C)[C@H]3CC[C@@]21C [medroxyprogesterone acetate],"Dissolution rate, times higher than tablet without β-cyclodextrin ether",[5],21 times
OC[C@H]1O[C@@H]2O[C@H]3[C@H](O)[C@@H](O)[C@@H](O[C@H]4[C@H](O)[C@@H](O)[C@@H](O[C@H]5[C@H](O)[C@@H](O)[C@@H](O[C@H]6[C@H](O)[C@@H](O)[C@@H](O[C@H]7[C@H](O)[C@@H](O)[C@@H](O[C@H]8[C@H](O)[C@@H](O)[C@@H](O[C@H]1[C@H](O)[C@H]2O)O[C@@H]8CO)O[C@@H]7CO)O[C@@H]6CO)O[C@@H]5CO)O[C@@H]4CO)O[C@@H]3CO [β-cyclodextrin],LD50 in rats (i.v.),rats,453 mg/kg bodyweight
same,Water solubility,[6],1.8 g/100 ml
dimethyl-β-cyclodextrin [dimethyl-β-cyclodextrin (DS 2.0)],LD50 in rats (i.v.),rats,200-207 mg/kg bodyweight
same,"C50%, concentration at which 50% haemolysis occurred",human red blood cells,0.33%
same,"C100%, concentration at which 100% haemolysis occurred",human red blood cells,0.5%
